The nature of data set [1]: Toxicity in mouse bearing intracranial tumor assessed as last day of survival at 10 mg/kg,ip for 10 days (Rvb=16 days). Type of data set: organism-based. The settings on record: in vivo, 240 h, time 10 day.
Data set [2] has as its system U-251. In words: cells. The data set is classed as functional, cell-based. The settings on record: Homo sapiens, U-251, 48 h.
Description: Cytotoxicity against human TMZ-sensitive U251 cells assessed as inhibition of cell growth incubated for 48 hrs by MTT assay
Data set [3] can be described thus: Toxicity in mouse bearing intracranial tumor assessed as assessed as median survival time at 10 mg/kg, ip for 14 days treatment started at 5 days post-infection (Rvb=12.8 days). The settings on record: in vivo, 336 h, time 14 day. The data set is classed as organism-based.
Data set [4] in a line: Cytotoxicity against mouse GL26 cells assessed as inhibition of cell growth incubated for 48 hrs by MTT assay. The settings on record: GL26, 48 h. Type of data set: functional, cell-based. (In general: Tetrazolium dyes change colour on reduction, which living cells bring about.)
A short description of data set [5]: Toxicity in mouse bearing intracranial tumor assessed as median survival time at 10 mg/kg, ip in presence of SAHA for 10 days (Rvb=13.8 days). The data set is classed as organism-based. The settings on record: in vivo, 240 h, time 10 day.
Data set [6] concerns Mus musculus. In words: In vivo inhibition of MAO-A in mouse xenografted with mouse GL26 assessed as decrease in MAO activity in tumor at 10 mg/kg by radiometric analysis. The data set is classed as functional, organism-based.
Data set [7] concerns Mus musculus. The experiment in a line: In vivo inhibition of MAO-A in mouse xenografted with mouse GL26 cells as decrease in MAO activity in brain at 10 mg/kg by radiometric analysis. Type of data set: functional, organism-based.
Data set [8] has as its system U-251. The experiment in a line: cells. The settings on record: Homo sapiens, U-251, 48 h. The data set is classed as functional, cell-based. The source holds these as a separate data set.
Description: Cytotoxicity against human TMZ-resistant U251 cells assessed as inhibition of cell growth incubated for 48 hrs by MTT assay
Data set [9] is described as follows: Toxicity in mouse bearing intracranial tumor assessed as median survival time at 5 mg/kg, ip in presence of SAHA for 10 days (Rvb=13.8 days). Type of data set: organism-based. The settings on record: in vivo, 240 h, time 10 day.
The nature of data set [10]: Toxicity in mouse bearing intracranial tumor assessed as median survival time at 10 mg/kg, ip for 10 days (Rvb= 13.8 days). The data set is classed as organism-based. The settings on record: in vivo, 240 h, time 10 day.
Data set [11] in a line: Toxicity in mouse bearing intracranial tumor assessed as assessed as median survival time at 10 mg/kg, ip treatment started at 7 dpi (Rvb=18.25 days). The data set is classed as organism-based. The settings on record: in vivo, 438 h.
The nature of data set [12]: Toxicity in mouse bearing intracranial tumor assessed as last day of survival at 10 mg/kg, ip treatment started at 7 dpi (Rvb=19 days). The data set is classed as organism-based. The settings on record: in vivo, 456 h.
Data set [13] is described as follows: Toxicity in mouse bearing intracranial tumor assessed as last day of survival at 10 mg/kg, ip in presence of SAHA for 10 days (Rvb=16 days). Type of data set: organism-based. The settings on record: in vivo, 240 h, time 10 day.
Data set [14] deals with T1, Amine oxidase [flavin-containing] B (Mus musculus, UniProt Q8BW75).
T1 sequence (Q8BW75 whole entry): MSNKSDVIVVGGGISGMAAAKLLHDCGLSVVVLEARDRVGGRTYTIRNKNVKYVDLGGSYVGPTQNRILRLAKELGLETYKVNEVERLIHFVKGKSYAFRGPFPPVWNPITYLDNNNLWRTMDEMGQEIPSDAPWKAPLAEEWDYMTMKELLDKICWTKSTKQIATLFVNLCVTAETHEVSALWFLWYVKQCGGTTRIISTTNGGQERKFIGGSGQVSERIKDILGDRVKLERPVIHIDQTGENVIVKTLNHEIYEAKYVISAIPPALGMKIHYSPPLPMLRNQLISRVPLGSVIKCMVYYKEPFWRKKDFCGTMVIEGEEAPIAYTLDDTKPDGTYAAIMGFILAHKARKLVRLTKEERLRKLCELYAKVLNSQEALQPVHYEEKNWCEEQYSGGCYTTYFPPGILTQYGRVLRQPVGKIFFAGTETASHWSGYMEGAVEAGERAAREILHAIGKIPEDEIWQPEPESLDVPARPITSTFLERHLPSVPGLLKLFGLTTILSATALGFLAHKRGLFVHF
In words: Inhibition of wild type MAO-B in mouse brain using methyl ester luciferin as substrate at 1 uM pre-incubated for 15 mins followed by substrate addition measured after 1 hr by MAO-Glo assay relative to control. The data set is classed as tissue-based.

A short description of data set [15]: Toxicity in mouse bearing intracranial tumor assessed as last day of survival at 5 mg/kg, ip in presence of SAHA for 10 days (Rvb=16 days). The data set is classed as organism-based. The settings on record: in vivo, 240 h, time 10 day.
Data set [16] is described as follows: Toxicity in mouse bearing intracranial tumor assessed as assessed as […] at 10 mg/kg, ip for 14 days treatment started at 5 days post-infection (Rvb=14 days). The data set is classed as organism-based. The settings on record: in vivo, 336 h, time 14 day.

The text below walks through data of ChEMBL document CHEMBL5154693, “N-Methylpropargylamine-Conjugated Hydroxamic Acids as Dual Inhibitors of Monoamine Oxidase A and Histone Deacetylase for Glioma Treatment” (J Med Chem, 2022).

Each structure is given as a SMILES string. Activity calls are given as the source filed them. No cut-off for these calls is given here.

Broadly, the IC50 is the concentration that gives 50% inhibition. In general, inhibition refers to the drop in the measured response relative to a control, in per cent. `C#CCN(C)CCCOc1ccc(Cl)cc1Cl` [CLORGILINE]: the Survival in data set [1] was determined as 17 days; in [3], 15 days; in data set [10], 13.8 days; in [12], 19 days; in [13], 18 days; in [15] it was 14 days. For the same compound, the IC50 came out at 175 µM in data set [2], 169 µM in [4] and 136 µM in data set [8]. Besides, the MST is 14.4 days in data set [5], 13.8 days in [9], 17.25 days in data set [11] and 11.75 days in data set [16]. In addition, the outcome in data set [6] and in [7] was Active. For the same compound, the inhibition at 1 µM in data set [14] is less than 25%.
